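Briefly, cells in 96-well plates were exposed to five compound concentrations for 48 h, and endpoints were estimated by linear interpolation. GI50 marks 50% less growth.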 Activity calls are given as the source filed them. Rule as the data show it: active = GI50 up to about 1.1 µM and inactive = higher.
Legend:
Experiment in all cases: inhibition of tumour cell growth, NCI panel, 48 h
[1] = system: LXFL 529
[2] = system: DMS-273
[3] = system: DMS-114
[4] = system: KM-20L2
[5] = system: XF498
[6] = system: DLD-1
[7] = system: SNB-78
[8] = system: HOP-18
[9] = system: RXF 631

Compound: N=c1oc2c(O)c(O)ccc2cc1C(N)=O
- GI50 [1]: 31.6 µM (inactive)
- GI50 [2]: > 100 µM (inactive)
- GI50 [3]: 35.4 µM (inactive)
- GI50 [4]: > 100 µM (inactive)
- GI50 [5]: 25.2 µM (inactive)
- GI50 [6]: > 100 µM (inactive)
- GI50 [7]: > 100 µM (inactive)

Compound: COc1cc2c3c(c1OC)C(=O)C=C3N(S(=O)(=O)c1ccc(C)cc1)CC2
- GI50 [1]: > 100 µM (inactive)
- GI50 [8]: > 100 µM (inactive)
- GI50 [2]: > 100 µM (inactive)
- GI50 [3]: > 100 µM (inactive)
- GI50 [4]: > 100 µM (inactive)
- GI50 [5]: 72.9 µM (inactive)
- GI50 [6]: > 100 µM (inactive)
- GI50 [7]: > 100 µM (inactive)

Compound: Cc1ccc(NC(=O)CCc2nnc(N)o2)cc1
- GI50 [1]: > 100 µM (inactive)
- GI50 [2]: > 100 µM (inactive)
- GI50 [3]: > 100 µM (inactive)
- GI50 [4]: > 100 µM (inactive)
- GI50 [5]: > 100 µM (inactive)
- GI50 [6]: > 100 µM (inactive)
- GI50 [7]: > 100 µM (inactive)
- GI50 [9]: > 31.6 µM (inactive)

Compound: CN1C(=O)c2cccc3c([N+](=O)[O-])ccc(c23)C1=O
- GI50 [1]: 1.46 µM (inactive)
- GI50 [8]: 17.1 µM (inactive)
- GI50 [2]: 4.23 µM (inactive)
- GI50 [3]: 4.1 µM (inactive)
- GI50 [4]: 5.7 µM (inactive)
- GI50 [6]: 2.82 µM (inactive)
- GI50 [7]: 14 µM (inactive)
- GI50 [9]: 2.58 µM (inactive)

Compound: C#CCSc1nc(N)c2ncn(C3OC(COP(=O)(O)O)C(O)C3O)c2n1 (stereo not given)
- GI50 [8]: > 239 µM (inactive)
- GI50 [2]: > 239 µM (inactive)
- GI50 [4]: > 239 µM (inactive)
- GI50 [5]: > 239 µM (inactive)
- GI50 [6]: > 239 µM (inactive)
- GI50 [7]: > 239 µM (inactive)

Compound: O=C(O)/C=C/n1c2ccccc2c(=O)c2ccccc21
- GI50 [2]: > 100 µM (inactive)
- GI50 [3]: > 100 µM (inactive)
- GI50 [4]: > 100 µM (inactive)
- GI50 [5]: > 100 µM (inactive)
- GI50 [6]: > 100 µM (inactive)
- GI50 [7]: > 100 µM (inactive)
- GI50 [9]: > 100 µM (inactive)

Compound: Nc1ccc(C2=Nc3ccccc3SC(c3ccccc3O)C2)cc1 (stereo not given)
- GI50 [1]: 22 µM (inactive)
- GI50 [8]: > 100 µM (inactive)
- GI50 [2]: 54.5 µM (inactive)
- GI50 [3]: 15.7 µM (inactive)
- GI50 [4]: > 100 µM (inactive)
- GI50 [5]: 16.3 µM (inactive)
- GI50 [6]: 34.1 µM (inactive)
- GI50 [9]: 68.2 µM (inactive)

Compound: Nc1ncnc2c1ncn2C1OC(CSC(F)F)C(O)C1O (stereo not given)
- GI50 [1]: > 100 µM (inactive)
- GI50 [8]: > 100 µM (inactive)
- GI50 [2]: > 100 µM (inactive)
- GI50 [3]: > 100 µM (inactive)
- GI50 [4]: > 100 µM (inactive)
- GI50 [6]: > 100 µM (inactive)
- GI50 [7]: > 100 µM (inactive)
- GI50 [9]: > 100 µM (inactive)

Compound: NC(CCC(=O)NC(CSC(=O)N(O)c1ccccc1)C(=O)NCC(=O)O)C(=O)O (stereo not given)
- GI50 [1]: > 1000 µM (inactive)
- GI50 [2]: > 1000 µM (inactive)
- GI50 [3]: > 1000 µM (inactive)
- GI50 [4]: > 1000 µM (inactive)
- GI50 [6]: > 1000 µM (inactive)
- GI50 [7]: > 1000 µM (inactive)

Compound: COc1ccc(/C(Cl)=C(\C=O)c2ccc(Br)cc2)cc1OC
- GI50 [1]: > 100 µM (inactive)
- GI50 [8]: 48.4 µM (inactive)
- GI50 [2]: > 100 µM (inactive)
- GI50 [4]: > 100 µM (inactive)
- GI50 [5]: 9.33 µM (inactive)
- GI50 [6]: > 100 µM (inactive)
- GI50 [7]: 25.4 µM (inactive)
- GI50 [9]: > 62.4 µM (inactive)

Compound: CCOC(=O)NC(=O)c1cn(CCN2CCNCC2)c(=O)[nH]c1=O
- GI50 [1]: > 100 µM (inactive)
- GI50 [8]: > 100 µM (inactive)
- GI50 [3]: > 100 µM (inactive)
- GI50 [5]: > 100 µM (inactive)
- GI50 [6]: > 100 µM (inactive)
- GI50 [7]: > 100 µM (inactive)

Compound: CCOc1ccc2nc(NC(=O)C(=O)C(C#N)CC(C)(C)C=O)sc2c1 (stereo not given)
- GI50 [1]: > 100 µM (inactive)
- GI50 [8]: > 100 µM (inactive)
- GI50 [2]: 18.7 µM (inactive)
- GI50 [3]: 35.6 µM (inactive)
- GI50 [4]: > 100 µM (inactive)
- GI50 [5]: > 100 µM (inactive)
- GI50 [6]: > 100 µM (inactive)
- GI50 [7]: > 100 µM (inactive)
- GI50 [9]: > 100 µM (inactive)

Compound: O=S1(=O)CS(=O)(=O)OCCCCCO1
- GI50 [1]: > 100 µM (inactive)
- GI50 [8]: > 100 µM (inactive)
- GI50 [2]: > 100 µM (inactive)
- GI50 [3]: > 100 µM (inactive)
- GI50 [4]: > 100 µM (inactive)
- GI50 [6]: > 100 µM (inactive)
- GI50 [7]: > 100 µM (inactive)
- GI50 [9]: > 100 µM (inactive)

Compound: C[N+]1(C)C/C(=C\c2ccc(O)cc2)C(=O)/C(=C/c2ccc(O)cc2)C1
- GI50 [1]: 60.5 µM (inactive)
- GI50 [8]: > 100 µM (inactive)
- GI50 [2]: 53 µM (inactive)
- GI50 [3]: 21.4 µM (inactive)
- GI50 [4]: 61.4 µM (inactive)
- GI50 [6]: 49.7 µM (inactive)
- GI50 [7]: > 100 µM (inactive)

Compound: C=C(CN(C)C)C(=O)c1ccc(C)cc1C
- GI50 [1]: 12.5 µM (inactive)
- GI50 [8]: 16 µM (inactive)
- GI50 [2]: 18.2 µM (inactive)
- GI50 [3]: 21.6 µM (inactive)
- GI50 [4]: 19.9 µM (inactive)
- GI50 [5]: 12 µM (inactive)
- GI50 [6]: 3.88 µM (inactive)
- GI50 [7]: 22.9 µM (inactive)
- GI50 [9]: 20.4 µM (inactive)

Compound: Cc1c(C(=O)c2ccccc2C(=O)O)c2ccccc2n1C
- GI50 [1]: > 100 µM (inactive)
- GI50 [2]: > 100 µM (inactive)
- GI50 [3]: > 100 µM (inactive)
- GI50 [4]: > 100 µM (inactive)
- GI50 [5]: > 100 µM (inactive)
- GI50 [6]: > 100 µM (inactive)
- GI50 [7]: > 100 µM (inactive)

Compound: CC(C)(C)C#COC(=O)c1ccccc1
- GI50 [1]: > 100 µM (inactive)
- GI50 [3]: > 100 µM (inactive)
- GI50 [4]: > 100 µM (inactive)
- GI50 [6]: > 100 µM (inactive)
- GI50 [7]: > 100 µM (inactive)

Compound: FC(F)(F)c1ccc2nc(NCc3ccccc3)c(-c3ccccc3)nc2c1
- GI50 [1]: 43.3 µM (inactive)
- GI50 [8]: 35.4 µM (inactive)
- GI50 [2]: 35.2 µM (inactive)
- GI50 [4]: 29.5 µM (inactive)
- GI50 [5]: 15.1 µM (inactive)
- GI50 [7]: 38.9 µM (inactive)

Compound: CCOC(=O)[C@H]1Nc2ccc(Cl)cc2[C@H]2CCC[C@@H]12
- GI50 [1]: > 100 µM (inactive)
- GI50 [8]: 53.2 µM (inactive)
- GI50 [2]: > 100 µM (inactive)
- GI50 [3]: 95.3 µM (inactive)
- GI50 [4]: > 100 µM (inactive)
- GI50 [5]: > 100 µM (inactive)
- GI50 [6]: > 100 µM (inactive)
- GI50 [7]: > 100 µM (inactive)

Compound: Cc1cc(C)nc(NS(=O)(=O)c2ccc(Nc3c4ccccc4nc4c(C(=O)N5CCN(CCO)CC5)cccc34)cc2)n1
- GI50 [1]: > 100 µM (inactive)
- GI50 [8]: > 100 µM (inactive)
- GI50 [2]: > 100 µM (inactive)
- GI50 [3]: > 100 µM (inactive)
- GI50 [4]: > 100 µM (inactive)
- GI50 [5]: > 100 µM (inactive)
- GI50 [6]: > 100 µM (inactive)
- GI50 [7]: > 100 µM (inactive)

Compound: CC(C)N(C(=O)C12C3C4C1C1C4(C#N)C3C12C(=O)O)C(C)C (stereo not given)
- GI50 [1]: > 100 µM (inactive)
- GI50 [8]: > 100 µM (inactive)
- GI50 [2]: > 100 µM (inactive)
- GI50 [3]: > 100 µM (inactive)
- GI50 [4]: > 100 µM (inactive)
- GI50 [5]: > 100 µM (inactive)
- GI50 [6]: > 100 µM (inactive)
- GI50 [7]: > 100 µM (inactive)
- GI50 [9]: > 100 µM (inactive)

Compound: CN(C)CC/C(=N\Nc1c(F)c(F)c(F)c(F)c1F)c1ccccc1
- GI50 [1]: 42.3 µM (inactive)
- GI50 [8]: 23.6 µM (inactive)
- GI50 [2]: 29.2 µM (inactive)
- GI50 [3]: 25.5 µM (inactive)
- GI50 [4]: 35.6 µM (inactive)
- GI50 [6]: 8.63 µM (inactive)
- GI50 [7]: 41.1 µM (inactive)

Compound: C[C@H]1[C@H](C)CC[C@]2(C(=O)O)CCC3(COC(=O)/C=C/c4ccc(O)cc4)C(=CCC4[C@@]5(C)CC[C@H](O)C(C)(C)C5CC[C@]43C)[C@H]12 (stereo not given in full)
- GI50 [1]: 3.83 µM (inactive)
- GI50 [8]: 18.3 µM (inactive)
- GI50 [2]: 4.76 µM (inactive)
- GI50 [3]: 3.72 µM (inactive)
- GI50 [4]: 4.83 µM (inactive)
- GI50 [6]: 3.39 µM (inactive)
- GI50 [7]: 43.8 µM (inactive)
- GI50 [9]: 7.55 µM (inactive)

Compound: C/C(=N\NC(=S)N1CCCCCC1)c1ccccn1
- GI50 [1]: < 0.001 µM (active)
- GI50 [8]: 0.123 µM (active)
- GI50 [2]: < 0.001 µM (active)
- GI50 [3]: < 0.001 µM (active)
- GI50 [4]: < 0.001 µM (active)
- GI50 [5]: 0.0014 µM (active)
- GI50 [6]: < 0.001 µM (active)
- GI50 [7]: 0.741 µM (active)
- GI50 [9]: 0.0386 µM (active)

Source: ChEMBL document CHEMBL1201862, “PubChem BioAssay data set” (2004)
